Broadly, the ΔTm is the shift of the melting midpoint relative to a reference.

Some results are limits rather than exact numbers.

One assay deals with c-myc G4 DNA. In words: Platination of c-myc followed by denaturing gel electrophoresis. Type of assay: biochemical. The following applies: for platination products on gel electrophoresis: c-myc 100 µM, 18 h at 32 °C, K+100 buffer; for platination of c-myc during melting temperature experiments: 0.2 µM c-myc, 1 µM complex, 25 to 95 °C gradient, K+1 buffer; for selectivity of platination, c-myc G4 vs duplex ds26 (competition kinetics): c-myc 0.2 µM, ds26 10 µM. Here is the method: The five platinum complexes were incubated for 18 h at 32 °C with pre-folded 5’-end ^32P radiolabeled c-myc DNA (10 or 100 µM) and loaded on denaturing polyacrylamide gel electrophoresis (Figure 4).
Two main accelerated bands (A1 and A2) were detected for Pt-ttpy and three were detected for Pt-tpy (B1, B2, and B3) in the presence of 10 µM of DNA. However, for Pt-BisQ, two accelerated bands (C1 and C2) and one retarded band (C3) were only detected at higher DNA concentration (100 µM). It is noteworthy that c-myc platination products migrate faster that the non-platinated G4, resulting in a stark contrast if compared to 22AG in which platination products migrate slower (Figure 2): this is due to the presence of the still folded G4 structures that resist to denaturation, as already found. […] The platination sites of Pt-ttpy, Pt-tpy, and Pt-BisQ were determined by 3’-exonuclease digestion, which stops at the platinated base, followed by a de-platination treatment of the digested fragments with NaCN (Figures S6 and S7). The exact length of the digested de-platinated fragment was deduced from its migration compared with the one of a digestion ladder of the c-myc sequence on a denaturating gel electrophoresis.
(§1) The oligonucleotides were 5’-end-labelled using a polynucleotide kinase and (γ^32P)-ATP (Perkin Helmer). The reaction products were purified by electrophoresis on 20% denaturing gel. Sample platinations were prepared by folding a mixture of 5’-end-radiolabeled DNA and 10 µM or 100 µM of non-radiolabeled material in 100 mM KClO4 or 100 mM KCl solution except for the platination reaction in the denaturing temperature conditions. The folding was achieved by heating the samples at 90 °C for 5 min, followed by slow cooling to room temperature over the course of 2 h to induce the formation of the quadruplex structure. It was then incubated with platinum complexes, and platinated products were separated by electrophoresis on 15% denaturing gel. They were then eluted from gel, precipitated, treated by 3’-exonuclease at 37 °C for 30 min, and loaded on a 20% denaturing gel. The digested fragments were eluted from this gel precipitated, treated over night by NaCN 0.2M, precipitated, and loaded once again on a 20% denaturing gel. Gels were scanned using a STORM860 (Molecular Dynamics).

A further assay concerns duplex ds26 DNA. The assay can be described thus: TO-PRO-3 G4-FID assay. It is filed as binding. The settings on record: ds26, K+100 buffer. The protocol:
For the G4-FID assay, the oligonucleotides were dissolved in K^+100 buffer (10 mM lithium cacodylate buffer pH 7.3, 100 mM KCl, 1% DMSO). Oligonucleotide concentrations were determined on the basis of their absorbance at 260 nm. For the fluorimetric titration, the oligonucleotides were dissolved in K^+100 buffer without DMSO. For the FRET-melting assay, the oligonucleotides were dissolved in K^+1 buffer (10 mM lithium cacodylate buffer pH 7.3, 1 mM KCl, 99 mM LiCl) except for F-21-T. F-21-T was dissolved in K^+10 buffer (10 mM lithium cacodylate buffer pH 7.3, 10 mM KCl, 90 mM LiCl). […]
Each G4-FID assay was performed in a 96-well Non-Binding Surface black with black bottom polystyrene microplates (Corning). […] After 5 min of orbital shaking at 500 rpm, fluorescence is measured using the following experimental parameters: positioning delay of 0.5 s, 20 flashes per well, emission/excitation filters for TO at 485/520, TO-PRO-3 at 620/670, and PhenDV at 355/520 gain adjusted at 80% of the fluorescence from the most fluorescent well (i.e., a well from column A for TO and a well from column H).
The percentage of TO displacement is calculated from the fluorescence intensity (F), using (1) % TO displacement=1−F/F0 where F0 is the fluorescence from the fluorescent probe bound to DNA without added ligand. […]

The test system of assay [1] is ds26 (DNA, duplex) CAATCGGATCGAATTCGATCCGATTG
In words: G4-FID, thiazole orange displacement. The settings on record: 100 mM KCl; 10 mM lithium cacodylate pH 7.3, 1% DMSO; thiazole orange displaced; 1 µM compound, 0.25 µM DNA.

The next assay relates to 22AG human telomeric G4. The assay can be described thus: Platination of 22AG followed by denaturing gel electrophoresis. It is filed as biochemical. The settings on record: 0.2 µM 22AG, 1 µM complex, 25 to 95 °C gradient, K+10 buffer.
From the text: Since all these complexes (except for Pt(PA)-tpy) are susceptible to induce platination reactions, they can be exacerbated by a high temperature and by an increased number of nucleophilic sites which are exposed during unfolding (increased N7 G free sites); we wonder if such a reaction could occur during FRET-melting experiments and to what extent. Therefore, we followed the extent of platination reactions of c-myc and 22AG (same sequences as those used for FRET-melting but without fluorophore labeling) as a function of the melting temperature using ^32P-labelled oligonucleotides and denaturing gel electrophoresis (Figure 2).
as §1, with “They were then eluted from gel, precipitated, treated by 3’-exonuclease at 37 °C for 30 min, and loaded on a 20% denaturing gel. The digested fragments were eluted from this gel precipitated, treated over night by NaCN 0.2M, precipitated, and loaded once again on a 20% denaturing gel. Gels were scanned using a STORM860 (Molecular Dynamics).” left out

The test system of assay [2] is F-21CTA-T (DNA, G4) AGGGCTAGGGCTAGGGCTAGGG
The assay can be described thus: FRET-melting. The following applies: 1 mM KCl, 99 mM LiCl; 10 mM lithium cacodylate pH 7.3; 1 µM compound, 0.2 µM DNA.

Assay [3] deals with F-21-T (DNA, G4) GGGTTAGGGTTAGGGTTAGGG
In words: FRET-melting. The following applies: 10 mM KCl, 90 mM LiCl; 10 mM lithium cacodylate pH 7.3; 1 µM compound, 0.2 µM DNA.

Assay [4] has as its system c-myc (myc22) (DNA, G4) TGAGGGTGGGTAGGGTGGGTAA
In words: G4-FID, TO-PRO-3 displacement. The following applies: 100 mM KCl; 10 mM lithium cacodylate pH 7.3, 1% DMSO; TO-PRO-3 displaced; 1 µM compound, 0.25 µM DNA.

Assay [5] concerns 21CTA (DNA, G4) AGGGCTAGGGCTAGGGCTAGGG
The assay can be described thus: G4-FID, TO-PRO-3 displacement. The settings on record: 100 mM KCl; 10 mM lithium cacodylate pH 7.3, 1% DMSO; TO-PRO-3 displaced; 1 µM compound, 0.25 µM DNA.

`[Cl-].[Cl][Pt+].c1ccc(-c2cc(-c3ccc(OCCN4CCCC4)cc3)nc(-c3ccccn3)n2)nc1` [Pt-cpym, Chloro-(2,4-di(pyridin-2-yl)-6-(4-(2-(pyrrolidin-1-yl)ethoxy)phenyl)pyrimidine)-platinum(II) Chloride]: the “platination products on gel electrophoresis” value (“platination products” below) with c-myc G4 DNA is recorded as “Non-defined platination products”.
Turning to `CN(C)CCCNCc1ccc(-c2cc(-c3ccccn3)nc(-c3ccccn3)c2)cc1.[Cl-].[Cl][Pt+]` [Pt-ctpy], in the assay on duplex ds26 DNA, the “% of TOPRO3 displacement at 1 µM of ligand” value is recorded as 24%. Also, the “% TO displacement” value in assay [1] is listed as under 20%. Further, in the assay on c-myc G4 DNA, the “platination products” value is on record as “Non-defined platination products”.
On to `[Cl-].[Cl][Pt+].c1ccc(-c2cccc(-c3ccccn3)n2)nc1` [Pt-tpy], for which the “platination of 22AG during melting temperature experiments” value with 22AG human telomeric G4 is recorded as “clearly platinate”. In addition, the “platination of c-myc during melting temperature experiments” value in the assay with c-myc G4 DNA was “clearly platinate”. In addition, in the assay with c-myc G4 DNA (K+10 buffer), the “selectivity of platination, c-myc G4 vs duplex ds26 (competition kinetics)” value is recorded as “low binding selectivity”.
Turning to `Cc1ccc(-c2cc(-c3ccccn3)nc(-c3ccccn3)c2)cc1.[Cl-].[Cl][Pt+]` [Pt-ttpy], the “% of TOPRO3 displacement at 1 µM of ligand” value in the assay on duplex ds26 DNA is on record as 13%. Also, the shift in melting temperature (ΔTm) in assay [2] and in assay [3] was over 10 °C each time. Further, in assay [1], the “% TO displacement” value is given as under 20%. For the same compound, the “platination of 22AG during melting temperature experiments” value in the assay on 22AG human telomeric G4 is recorded as “clearly platinate”. Further, in the assay on c-myc G4 DNA, the “platination of c-myc during melting temperature experiments” value is on record as “clearly platinate”. The “selectivity of platination, c-myc G4 vs duplex ds26 (competition kinetics)” value with c-myc G4 DNA (K+10 buffer) is recorded as “high selectivity”. Moreover, the “incubation time to metallate a large amount of c-myc*” value in the assay on c-myc G4 DNA (c-myc* 0.2 µM, K+10 buffer, 25 °C) is given as at most 120 min.
Regarding `CN(C)c1ccc(/C=C/c2cc(-c3ccccn3)nc(-c3ccccn3)n2)cc1.[Cl-].[Cl][Pt+]` [Pt-vpym, Chloro-(E)-4-(2-(2,6-di(pyridin-2-yl)pyrimidin-4-yl)vinyl)-N,N-dimethylaniline-platinum(II) Chloride], the “% TO-PRO-3 displacement” value in assay [4] and in assay [5] was ~ 30% throughout. The “platination products” value in the assay on c-myc G4 DNA is “Non-defined platination products”.
